From patent publication US20250339392A1, “THE USE OF LRRC8 PROTEIN […] PREVENT AND TREAT CARDIOVASCULAR DISEASE” (Washington University, priority 2022, published 2025)
Changes are numbered by the printed parent chain. pIC50: −log10 of the molar value. Entries after “also recorded” stand apart in the source; their conditions may differ.

Tests used:
LRRC8 channel [1] = target: T1, LRRC8 channel (Homo sapiens, UniProt Q8IWT6); experiment: swell-activated currents recorded from HEK cells; format: cell-based
T1 construct: endogenous in cells; host or cells: HEK cells
T1 sequence (Q8IWT6 1-810): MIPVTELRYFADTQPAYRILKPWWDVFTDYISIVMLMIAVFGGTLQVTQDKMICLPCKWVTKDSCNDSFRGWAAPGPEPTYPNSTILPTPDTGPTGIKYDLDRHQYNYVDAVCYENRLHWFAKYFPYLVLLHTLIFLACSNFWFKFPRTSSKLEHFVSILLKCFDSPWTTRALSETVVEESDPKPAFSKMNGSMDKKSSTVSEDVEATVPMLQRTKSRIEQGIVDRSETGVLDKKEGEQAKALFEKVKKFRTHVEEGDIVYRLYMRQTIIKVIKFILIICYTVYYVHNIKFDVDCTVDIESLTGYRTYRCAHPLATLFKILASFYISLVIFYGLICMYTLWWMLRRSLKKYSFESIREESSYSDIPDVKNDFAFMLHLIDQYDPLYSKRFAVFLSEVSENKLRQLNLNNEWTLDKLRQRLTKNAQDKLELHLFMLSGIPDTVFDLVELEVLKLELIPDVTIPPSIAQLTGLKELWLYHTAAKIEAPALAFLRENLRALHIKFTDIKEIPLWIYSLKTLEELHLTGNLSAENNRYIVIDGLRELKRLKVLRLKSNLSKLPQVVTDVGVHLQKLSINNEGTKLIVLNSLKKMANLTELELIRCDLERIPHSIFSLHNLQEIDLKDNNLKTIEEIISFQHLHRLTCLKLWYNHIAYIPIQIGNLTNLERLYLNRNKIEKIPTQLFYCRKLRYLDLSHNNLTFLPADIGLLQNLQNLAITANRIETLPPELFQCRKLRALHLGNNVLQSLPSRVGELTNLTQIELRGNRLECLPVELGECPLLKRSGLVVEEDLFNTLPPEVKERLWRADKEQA
From the text: FIG. 25A-25D depict how congeners SN-418 and SN-418C are potent inhibitors of swell-activated currents recorded from HEK cells. FIG. 25A depicts the chemical structure of SN-418. FIG. 25B depicts the chemical structure of SN-418C. FIG. 25C depicts currents in the presence of varying concentrations of SN-418 and SN-401 normalized to the currents activated in hypotonic solution alone. […] FIG. 25D depicts currents in the presence of varying concentrations of SN-418C and SN-401 normalized to the currents activated in hypotonic solution alone.
Examples of these are SN-418 and SN-418C (FIG. 25A&25B), which include modification in the alkyl chain+/−cyclopropyl group to increase LRRC8 channel inhibition ˜10-fold over SN-401 (FIG. 25C&25D). SN-418C was then tested for antiplatelet activity in vitro.

LRRC8 channel [2] = target: T2, LRRC8 channel (Mus musculus, UniProt Q80WG5); experiment: perforated patch-clamp of ICl,SWELL in freshly isolated murine megakaryocytes; format: cell-based; parameters: inhibition of ICI,SWELL currents: dose or concentration left out as unconfirmed; details: for inhibition of swell-activated current: murine MK, hypotonic solution (HYPO, 205 mOsm), 10 μM
T2 construct: endogenous in cells; host or cells: freshly isolated murine megakaryocytes (WT = LRRC8A fl/fl littermate controls)
T2 sequence (Q80WG5 1-810): T1 sequence (Q8IWT6 1-810) with P75S, G76S, I86V, I276A, A591V, I715V, T722A, N792S
From the text: FIG. 17A depicts a murine MK perforated patch-clamp. FIG. […] FIG. 17C depicts the current-voltage relationship in WT MK. FIG. 17D depicts the current-voltage relationship in cKO MK. FIG. 17E depicts mean outward and inward currents at +100 mV and −100 mV respectively, in WT, WT+SN401, and cKO MK. * p<0.05;** p<0.01.
To validate the biology implied by the human genetic studies, megakaryocyte (MK)-specific LRRC8A conditional knockout (cKO) mice were generated by crossing our LRRC8A^fl/fl mouse (SWELL1^fl/fl)^35-31 with the platelet factor4-driven Cre recombinase mouse (Pf4-Cre) to generate LRRC8A^fl/fl;Pf4-cre+/− (cKO) and littermate control LRRC8A^fl/fl mice (WT). Complete deletion of LRRC8A protein from cKO mouse platelets was confirmed while maintaining expression of the platelet marker b3 integrin (FIG. 16). To confirm that LRRC8 proteins form functional VRAC/ICI,SWELL channels in platelets, ICI,SWELL was measured in freshly isolated murine MK using the perforated patch configuration of the patch-clamp technique (FIG. 17A). […] This hypotonically-activated, swell-activated current is entirely abolished in cKO MKs (FIG. 17C-17D), confirming the SN-401-inhibited current in murine MKs to be entirely LRRC8A mediated.

human platelets = experiment: platelet adhesion to collagen in microfluidic device, human whole blood; format: cell-based; details: 10 μM, collagen-coated microfluidic chamber, vs vehicle (DMSO)
Experimental: Human blood from 4 donors was collected into heparin anticoagulant, pooled and incubated with the fluorescently label DiOC6 (3,39-dihexyloxacarbocyanine iodide; Invitrogen) and either 10 μM SN-401 (DCPIB) or vehicle (DMSO) for 10 minutes. The whole blood was perfused through a polydimethysiloxane (PDMS) microfluidic device plasma bonded to a glass slide patterned with bovine type 1 collagen at a constant upstream pressure for 5 minutes followed by PBS for 5 minutes. Platelet accumulation was captured using an Olympus IX83 inverted microscope and the surface area coverage of platelets quantified using ImageJ.
FIG. 23A-23B depict how SN-401 impairs human platelet adhesion under physiologic shear-flow conditions in collagen-coated microfluidic flow chambers. n=4 blood draws from 4 subjects on 2 separate days. FIG. 23A depicts the percentage of surface area covered by adherent platelets over time in human whole-blood treated with vehicle or 10 μM SN-401. p=0.1 for 2-way Anova. FIG. 23B depicts the area under the curve (AUC) calculated from FIG. 23A for vehicle and SN-401. p=0.1 for t-test.

C57BL/6 mice = experiment: tail wound thrombosis / tail bleeding assay; format: in vivo, mouse
Experimental: To determine if acute inhibition of LRRC8 channel activity affected platelet function in vivo, vehicle or the known LRRC8 channel inhibitor SN-401 (DCPIB) was administered to 25 to 30-week old C57BL/6 mice by IP injection, and in vivo thrombosis was quantified using an assay for tail wound thrombosis. Specifically, 20 minutes following IP injection with vehicle or 10 mg/kg SN-401, mouse tails were amputated 5 mm from the tail tip, placed in normal saline at 37° C. for 15 minutes, and the relative blood loss during that period was quantified by estimating the hemoglobin concentration in the normal saline by measuring light absorbance at 550 nm.
FIG. 24 depicts how SN-401 treatment increases mouse tail bleeding. Mice were pretreated with Vehicle or SN401 (10 mg/kg i.p×1) and tail bleeding quantified after 15 minutes by measuring absorbance of hemoglobin at 550 nm. * p<0.05.
To determine if acute inhibition of LRRC8 channel activity affected platelet function in vivo, vehicle or the known LRRC8 channel inhibitor SN-401 (DCPIB) was administered to 25 to 30-week old C57BL6 mice by IP injection, and in vivo thrombosis was quantified using an assay for tail wound thrombosis. […]

MEG01 cells = experiment: swell-activated currents in human MK cell line MEG01; format: cell-based; details: WT MEG01 cells, hypotonic solution (HYPO, 210 mOsm), 10 μM
Experimental: FIG. 29A-29C depicts how the human MK cell line, MEG01, had robust, SN-4XX-inhibited, swell-activated currents. FIG. 29A depicts current density over time in response to swelling with hypotonic solution (HYPO, 210 mOsm), and inhibition by 10 μM SN401 in WT MEG01 cells. FIG. 29B depicts the current-voltage relationship in WT MEG01 cells in response to HYPO and inhibition by 10 μM SN401. FIG. 29C depicts the current-voltage relationship in WT MEG01 cells in response to HYPO and inhibition by 3 μM SN418c.

For CCCCC1(C2CCCC2)Cc2cc(OCCCC(=O)O)c(Cl)c(Cl)c2C1=O (stereo not drawn) [SN-401, 4-((2-Butyl-6,7-dichloro-2-cyclopentyl-1-oxo-2,3-dihydro-1H-inden-5-yl)oxy)butanoic acid], the pIC50 (LRRC8 channel [1]) was 5.40, the “inhibition of ICI,SWELL currents” value (LRRC8 channel [2]; WT MK, hypotonic swelling) was “fully inhibited” and the “inhibition of swell-activated current” value (LRRC8 channel [2]) was “robust inhibition”. The “inhibition of swell-activated current” value (LRRC8 channel [2]; listed as SN401) was “inhibition”, the “adhesion of human platelets to collagen (surface area coverage)” value (human platelets) was “significantly reduced; also recorded: significantly inhibited; also recorded: impairs” and the “mean amount of tail blood loss relative to vehicle” value (C57BL/6 mice; 10 mg/kg IP, 20 minutes before tail amputation, 15 minutes, absorbance at 550 nm) was 4 fold. The tail bleeding (C57BL/6 mice; 10 mg/kg i.p. x1, hemoglobin absorbance at 550 nm after 15 minutes) was “increases”, the “inhibition of swell-activated (ICI,SWELL) current” value (MEG01 cells) was “completely inhibited” and the “inhibition of swell-activated (ICI,SWELL) current” value (MEG01 cells; listed as SN401) was “inhibition”.
